Experimental data published in patent US7294642B2, “1,3-Diamino-2-hydroxypropane pro-drug derivatives” (Elan Pharmaceuticals, Inc., priority 2002, dated 2007).
One block for each compound: values may come before it.

Assay: Acyl group migration (rearrangement) of pro-drug in DMSO-d6/buffer solution monitored by 19F-NMR
Format: physicochemical
Experimental: A compound of formula (I) OR (X) (5 mg) is dissolved in DMSO-d6 (500 μL) and either pH 4 buffer solution (500 μL, potassium hydrogen phthalate buffer) or pH 7 buffer solution (500 μL, sodium and potassium phosphate buffer) is added. The sample is then heated to 40° C. The O-acyl or N-acyl to N-terminal N-acyl migration is monitored by observing the change in chemical shift for the aromatic fluorines using ^19F-NMR. (Fluorine shifts associated with the desired migration were confirmed by spiking with authentic analogue). The sample is analyzed by ^19F-NMR at approxiamately 0, 1.5, 3, 24, 48, and 144 hours. The amount of O-acyl pro-drug, N-acyl pro-drug, and desired migration product at each time point are assigned by integrating the corresponding NMR signal.
N˜1˜-[(2R,3S)-3-amino-4-(3,5-difluorophenyl)-2-hydroxybutyl]-5-(1,3-oxazol-2-yl)-N˜3˜,N˜3˜-dipropyl-N˜1˜-[3-(trifluoromethyl)benzyl]isophthalamide hydrochloride (PREPARATION 7, 5 mg) is dissolved in DMSO-d6 (500 μL) and pH 4 buffer solution (500 μL, potassium hydrogen phthalate buffer) is added. The sample is then heated to 40° C. The N-acyl to N-terminal N-acyl migration is monitored by observing the change in chemical shift for the aromatic fluorines using ^19F-NMR. (Fluorine shifts for the desired migration product in the presence of buffer was confirmed by spiking with authentic migration product, N^1-((1S,2R)-1-(3,5-difluorobenzyl)-2-hydroxy-3-{[3-(trifluoromethyl)benzyl]amino}propyl)-5-(1,3-oxazol-2-yl)-N^3,N^3-dipropylisophthalamide.) NMR data is collected at 0, 1, 3, 25, 48, 96, and 144 hours. The amount of N-acyl pro-drug and desired migration product present at each time point is assigned by integrating the corresponding NMR signal.
The following examples illustrate the solution acyl group migration of compounds of the formulae (I) and (X) as observed by ^19F NMR spectroscopy. Data were collected as described in Example 1, above.

HEA product (% present) (pH 4, 40° C., time 0 hr): 0%
N-acyl prodrug (% present) (pH 4, 40° C., time 0 hr): 0%
O-acyl pro-drug (% present) (pH 4, 40° C., time 0 hr): 100%
HEA product (% present) (pH 4, 40° C., time 1.5 hr): 54%
N-acyl prodrug (% present) (pH 4, 40° C., time 1.5 hr): 14%
O-acyl pro-drug (% present) (pH 4, 40° C., time 1.5 hr): 32%
HEA product (% present) (pH 4, 40° C., time 3 hr): 74%
N-acyl prodrug (% present) (pH 4, 40° C., time 3 hr): 18%
O-acyl pro-drug (% present) (pH 4, 40° C., time 3 hr): 8%
HEA product (% present) (pH 4, 40° C., time 30 hr): 79%
N-acyl prodrug (% present) (pH 4, 40° C., time 30 hr): 21%
O-acyl pro-drug (% present) (pH 4, 40° C., time 30 hr): 0%
HEA product (% present) (pH 4, 40° C., time 54 hr): 80%
N-acyl prodrug (% present) (pH 4, 40° C., time 54 hr): 20%
O-acyl pro-drug (% present) (pH 4, 40° C., time 54 hr): 0%
HEA product (% present) (pH 4, 40° C., time 126 hr): 86%
N-acyl prodrug (% present) (pH 4, 40° C., time 126 hr): 14%
O-acyl pro-drug (% present) (pH 4, 40° C., time 126 hr): 0%
HEA product (% present) (pH 7, 40° C., time 0 hr): 0%
N-acyl prodrug (% present) (pH 7, 40° C., time 0 hr): 0%
O-acyl pro-drug (% present) (pH 7, 40° C., time 0 hr): 100%
HEA product (% present) (pH 7, 40° C., time 1.5 hr): 34%
N-acyl prodrug (% present) (pH 7, 40° C., time 1.5 hr): 66%
O-acyl pro-drug (% present) (pH 7, 40° C., time 1.5 hr): 0%
HEA product (% present) (pH 7, 40° C., time 7 hr): 41%
N-acyl prodrug (% present) (pH 7, 40° C., time 7 hr): 59%
O-acyl pro-drug (% present) (pH 7, 40° C., time 7 hr): 0%
HEA product (% present) (pH 7, 40° C., time 24 hr): 57%
N-acyl prodrug (% present) (pH 7, 40° C., time 24 hr): 43%
O-acyl pro-drug (% present) (pH 7, 40° C., time 24 hr): 0%
HEA product (% present) (pH 7, 40° C., time 48 hr): 73%
N-acyl prodrug (% present) (pH 7, 40° C., time 48 hr): 27%
O-acyl pro-drug (% present) (pH 7, 40° C., time 48 hr): 0%
HEA product (% present) (pH 7, 40° C., time 144 hr): 84%
N-acyl prodrug (% present) (pH 7, 40° C., time 144 hr): 16%
O-acyl pro-drug (% present) (pH 7, 40° C., time 144 hr): 0%
SMILES: CCCN(CCC)C(=O)c1cc(C(=O)O[C@H](CNCc2cccc(C(F)(F)F)c2)[C@@H](N)Cc2cc(F)cc(F)c2)cc(-c2ncco2)c1.Cl.Cl [Preparation 18, (1R,2S)-2-amino-3-(3,5-uorophenyl)-1-({[3-(trifluoromethyl)benzyl]amino}methyl)propyl 3-[(dipropylamino)carbonyl]-5-(1,3-oxazol-2-yl)benzoate dihydrochloride]

HEA product (% present) (pH 4, 40° C., time 0 hr): 0%
N-acyl prodrug (% present) (pH 4, 40° C., time 0 hr): 0%
O-acyl pro-drug (% present) (pH 4, 40° C., time 0 hr): 100%
HEA product (% present) (pH 4, 40° C., time 0.5 hr): 7%
N-acyl prodrug (% present) (pH 4, 40° C., time 0.5 hr): 0%
O-acyl pro-drug (% present) (pH 4, 40° C., time 0.5 hr): 93%
HEA product (% present) (pH 4, 40° C., time 1 hr): 13%
N-acyl prodrug (% present) (pH 4, 40° C., time 1 hr): 0%
O-acyl pro-drug (% present) (pH 4, 40° C., time 1 hr): 87%
HEA product (% present) (pH 4, 40° C., time 3 hr): 27%
N-acyl prodrug (% present) (pH 4, 40° C., time 3 hr): 0%
O-acyl pro-drug (% present) (pH 4, 40° C., time 3 hr): 66%
HEA product (% present) (pH 4, 40° C., time 6 hr): 42%
N-acyl prodrug (% present) (pH 4, 40° C., time 6 hr): 0%
O-acyl pro-drug (% present) (pH 4, 40° C., time 6 hr): 49%
HEA product (% present) (pH 4, 40° C., time 24 hr): 78%
N-acyl prodrug (% present) (pH 4, 40° C., time 24 hr): 0%
O-acyl pro-drug (% present) (pH 4, 40° C., time 24 hr): 9%
HEA product (% present) (pH 4, 40° C., time 48 hr): 86%
N-acyl prodrug (% present) (pH 4, 40° C., time 48 hr): 0%
O-acyl pro-drug (% present) (pH 4, 40° C., time 48 hr): 0%
HEA product (% present) (pH 7, 40° C., time 0 hr): 0%
N-acyl prodrug (% present) (pH 7, 40° C., time 0 hr): 0%
O-acyl pro-drug (% present) (pH 7, 40° C., time 0 hr): 100%
HEA product (% present) (pH 7, 40° C., time 0.5 hr): 10%
N-acyl prodrug (% present) (pH 7, 40° C., time 0.5 hr): 0%
O-acyl pro-drug (% present) (pH 7, 40° C., time 0.5 hr): 10%
HEA product (% present) (pH 7, 40° C., time 1 hr): 100%
N-acyl prodrug (% present) (pH 7, 40° C., time 1 hr): 0%
O-acyl pro-drug (% present) (pH 7, 40° C., time 1 hr): 0%
SMILES: C#Cc1cccc(C2(NC[C@@H](OC(=O)c3cc(C(=O)N(CCC)CCC)cc(-c4ncco4)c3)[C@@H](N)Cc3cc(F)cc(F)c3)CC2)c1 [Preparation 22, (1R,2S)-2-amino-3-(3,5-difluorophenyl)-1-({[1-(3-ethynylphenyl)cyclopropyl]amino}methyl)propyl 3-[(dipropylamino)carbonyl]-5-(1,3-oxazol-2-yl)benzoate]
